Reference: paper PMC5218480 (PLoS ONE, 2017)

Test system: MV-4-11 cells
Test: Gene expression microarray analysis (Affymetrix PrimeView) and GSEA
Type: cell-based, human
Parameters: RFU PODN (11730768_x_at) / Fold change /veh PODN (11730768_x_at) / RFU LINC00158 (11744669_a_at) / Fold change /veh LINC00158 (11744669_a_at) / RFU DUSP10 (11751237_a_at) / Fold change /veh DUSP10 (11751237_a_at) / RFU ID3 (11757404_x_at) / Fold change /veh ID3 (11757404_x_at) / RFU PLEKHG5 (11737974_s_at) / Fold change /veh PLEKHG5 (11737974_s_at) / RFU LRRC4B (11730491_at) / Fold change /veh LRRC4B (11730491_at) / RFU GIMAP4 (11747438_a_at) / Fold change /veh GIMAP4 (11747438_a_at) / RFU KRT8 (11758183_x_at) / Fold change /veh KRT8 (11758183_x_at) / RFU CNN1 (11734310_a_at) / Fold change /veh CNN1 (11734310_a_at) / RFU VPS37D (11726825_at) / Fold change /veh VPS37D (11726825_at) / RFU C10orf10 (11716522_x_at) / Fold change /veh C10orf10 (11716522_x_at) / RFU KIR2DL2 /// KIR2DL4 /// KIR2DL5A /// KIR2DL5B /// KIR2DS1 /// KIR2DS2 /// KIR2DS3 /// KIR2DS4 /// KIR3DL3 /// KIR3DL3 /// KIR3DS1 (11738374_at) / Fold change /veh KIR2DL2 /// KIR2DL4 /// KIR2DL5A /// KIR2DL5B /// KIR2DS1 /// KIR2DS2 /// KIR2DS3 /// KIR2DS4 /// KIR3DL3 /// KIR3DL3 /// KIR3DS1 (11738374_at) / RFU C1QL1 (11718748_at) / Fold change /veh C1QL1 (11718748_at) / RFU TMPRSS4 (11747572_a_at) / Fold change /veh TMPRSS4 (11747572_a_at) / RFU HAMP (11756126_x_at) / Fold change /veh HAMP (11756126_x_at) / RFU RNFT2 (11725882_a_at) / Fold change /veh RNFT2 (11725882_a_at) / RFU NR4A2 (11747474_a_at) / Fold change /veh NR4A2 (11747474_a_at) / RFU ABCC12 (11746883_a_at) / Fold change /veh ABCC12 (11746883_a_at) / RFU TMEM136 (11760407_x_at) / Fold change /veh TMEM136 (11760407_x_at) / RFU CLDN22 /// WWC2 (11732394_at) / Fold change /veh CLDN22 /// WWC2 (11732394_at) / RFU HLA-DPB1 (11760878_x_at) / Fold change /veh HLA-DPB1 (11760878_x_at) / RFU SPINT1 (11716480_a_at) / Fold change /veh SPINT1 (11716480_a_at) / RFU GAP43 (11754022_s_at) / Fold change /veh GAP43 (11754022_s_at) / RFU A4GNT (11735810_at) / Fold change /veh A4GNT (11735810_at) / RFU PRB3 (11715151_x_at) / Fold change /veh PRB3 (11715151_x_at) / RFU TUBB4B (11761932_at) / Fold change /veh TUBB4B (11761932_at) / RFU CAPN14 (11732068_a_at) / Fold change /veh CAPN14 (11732068_a_at) / RFU TMCC2 (11721928_a_at) / Fold change /veh TMCC2 (11721928_a_at) / RFU IRGQ (11745062_a_at) / Fold change /veh IRGQ (11745062_a_at) / RFU FAM174B (11720279_a_at) / Fold change /veh FAM174B (11720279_a_at) / RFU TMPRSS4 (11748680_a_at) / Fold change /veh TMPRSS4 (11748680_a_at) / RFU FAM212B (11763350_a_at) / Fold change /veh FAM212B (11763350_a_at) / RFU PLEKHG5 (11743358_a_at) / Fold change /veh PLEKHG5 (11743358_a_at) / RFU ZSCAN30 (11745921_a_at) / Fold change /veh ZSCAN30 (11745921_a_at) / RFU CMKLR1 (11741424_a_at) / Fold change /veh CMKLR1 (11741424_a_at) / RFU LOC101060620 /// MAPK8IP1 (11723275_at) / Fold change /veh LOC101060620 /// MAPK8IP1 (11723275_at) / RFU SPTSSB (11747773_x_at) / Fold change /veh SPTSSB (11747773_x_at) / RFU PRSS12 (11739890_at) / Fold change /veh PRSS12 (11739890_at) / RFU BIN1 (11741810_x_at) / Fold change /veh BIN1 (11741810_x_at) / RFU WNT11 (11732464_a_at) / Fold change /veh WNT11 (11732464_a_at) / RFU C10orf10 (11716521_a_at) / Fold change /veh C10orf10 (11716521_a_at) / RFU C5orf56 (11738089_at) / Fold change /veh C5orf56 (11738089_at) / RFU CYB561 (11721691_x_at) / Fold change /veh CYB561 (11721691_x_at) / RFU ANKRD19P (11752326_a_at) / Fold change /veh ANKRD19P (11752326_a_at) / RFU OR2T12 /// OR2T33 /// OR2T8 (11738714_s_at) / Fold change /veh OR2T12 /// OR2T33 /// OR2T8 (11738714_s_at) / RFU VCAN (11748164_a_at) / Fold change /veh VCAN (11748164_a_at) / RFU JSRP1 (11732532_at) / Fold change /veh JSRP1 (11732532_at) / RFU KRTAP10-11 (11738290_x_at) / Fold change /veh KRTAP10-11 (11738290_x_at) / RFU MYO3A (11730013_a_at) / Fold change /veh MYO3A (11730013_a_at) / RFU EBF3 (11725865_a_at) / Fold change /veh EBF3 (11725865_a_at) / RFU CAMK2N1 (11719241_x_at) / Fold change /veh CAMK2N1 (11719241_x_at) / RFU C5orf56 (11738088_a_at) / Fold change /veh C5orf56 (11738088_a_at) / RFU OLFML3 (11715873_a_at) / Fold change /veh OLFML3 (11715873_a_at) / RFU LOC100653217 /// NTM (11731650_a_at) / Fold change /veh LOC100653217 /// NTM (11731650_a_at) / RFU MAPK11 (11762145_a_at) / Fold change /veh MAPK11 (11762145_a_at) / RFU FIZ1 (11724087_x_at) / Fold change /veh FIZ1 (11724087_x_at) / RFU OASL (11726364_x_at) / Fold change /veh OASL (11726364_x_at) / RFU SOX15 (11748057_x_at) / Fold change /veh SOX15 (11748057_x_at) / RFU CD79A (11719716_a_at) / Fold change /veh CD79A (11719716_a_at) / RFU HIST1H1D (11736915_at) / Fold change /veh HIST1H1D (11736915_at) / RFU CASKIN2 (11723855_a_at) / Fold change /veh CASKIN2 (11723855_a_at) / RFU LOC730098 (11760151_x_at) / Fold change /veh LOC730098 (11760151_x_at) / RFU OR4N2 (11742367_at) / Fold change /veh OR4N2 (11742367_at) / RFU PRRT2 (11749266_a_at) / Fold change /veh PRRT2 (11749266_a_at) / RFU SNX32 (11753110_a_at) / Fold change /veh SNX32 (11753110_a_at) / RFU CDHR5 (11726645_a_at) / Fold change /veh CDHR5 (11726645_a_at) / RFU RCAN1 (11760418_a_at) / Fold change /veh RCAN1 (11760418_a_at) / RFU FAM167A (11723789_a_at) / Fold change /veh FAM167A (11723789_a_at) / RFU FAM26E (11764081_at) / Fold change /veh FAM26E (11764081_at) / RFU ISYNA1 (11749810_s_at) / Fold change /veh ISYNA1 (11749810_s_at) / RFU ACY1 (11761880_at) / Fold change /veh ACY1 (11761880_at) / RFU 11764098_at / Fold change /veh 11764098_at / RFU SAMD14 (11745864_x_at) / Fold change /veh SAMD14 (11745864_x_at) / RFU NPB (11741838_a_at) / Fold change /veh NPB (11741838_a_at) / RFU TMPRSS6 (11731388_a_at) / Fold change /veh TMPRSS6 (11731388_a_at) / RFU KRTAP10-2 (11738614_at) / Fold change /veh KRTAP10-2 (11738614_at) / RFU ARHGAP8 /// PRR5-ARHGAP8 (11727945_x_at) / Fold change /veh ARHGAP8 /// PRR5-ARHGAP8 (11727945_x_at) / RFU KRTAP5-7 /// NADSYN1 (11734609_at) / Fold change /veh KRTAP5-7 /// NADSYN1 (11734609_at) / RFU RASL12 (11751679_a_at) / Fold change /veh RASL12 (11751679_a_at) / RFU CDKN2B (11736163_a_at) / Fold change /veh CDKN2B (11736163_a_at) / RFU PRF1 (11729649_at) / Fold change /veh PRF1 (11729649_at) / RFU, ZNF638 /// ZNF638-IT1 / Fold change vs veh, ZNF638 /// ZNF638-IT1 / RFU, PANK3 / Fold change vs veh, PANK3 / RFU, SH3YL1 / Fold change vs veh, SH3YL1 / RFU, ZEB2 / Fold change vs veh, ZEB2 / RFU, NRIP1 / Fold change vs veh, NRIP1 / RFU, PTTG1IP / Fold change vs veh, PTTG1IP / RFU, CAPN2 / Fold change vs veh, CAPN2 / RFU, MED14 / Fold change vs veh, MED14 / RFU, SNORA58 / Fold change vs veh, SNORA58 / RFU, C1orf63 / Fold change vs veh, C1orf63 / RFU, LRRFIP1 / Fold change vs veh, LRRFIP1 / RFU, NDUFAF7 / Fold change vs veh, NDUFAF7 / RFU, SLC12A2 / Fold change vs veh, SLC12A2 / RFU, IBTK / Fold change vs veh, IBTK / RFU, ESF1 / Fold change vs veh, ESF1 / Fold change vs veh, TMEM50B / RFU, TAOK1 / Fold change vs veh, TAOK1 / RFU, ACBD3 / Fold change vs veh, ACBD3 / RFU, TMA16 / Fold change vs veh, TMA16 / RFU, RWDD3 / Fold change vs veh, RWDD3 / RFU, BCAT1 / Fold change vs veh, BCAT1 / RFU, EDEM3 / Fold change vs veh, EDEM3 / RFU, TMEM33 / Fold change vs veh, TMEM33 / RFU, WDR75 / Fold change vs veh, WDR75 / RFU, AHCTF1 / Fold change vs veh, AHCTF1 / RFU, TFRC / Fold change vs veh, TFRC / RFU, ZDHHC17 / Fold change vs veh, ZDHHC17 / RFU, NOM1 / Fold change vs veh, NOM1 / RFU, ARL8B / Fold change vs veh, ARL8B / RFU, ZBTB11 / Fold change vs veh, ZBTB11 / RFU, TAMM41 / Fold change vs veh, TAMM41 / RFU, KIAA1704 /// LOC100996395 / Fold change vs veh, KIAA1704 /// LOC100996395 / RFU, ING1 / Fold change vs veh, ING1 / RFU, TRMT61B / Fold change vs veh, TRMT61B / RFU, FUBP3 / Fold change vs veh, FUBP3 / RFU, TP53 / Fold change vs veh, TP53 / RFU, TNKS2 / Fold change vs veh, TNKS2 / RFU, ZFP14 / Fold change vs veh, ZFP14 / RFU, ACTR2 / Fold change vs veh, ACTR2 / RFU, PPP3R1 / Fold change vs veh, PPP3R1 / RFU, PIK3R1 / Fold change vs veh, PIK3R1 / RFU, HNRNPA1 / Fold change vs veh, HNRNPA1 / RFU, RNF170 / Fold change vs veh, RNF170 / RFU, ZNF28 / Fold change vs veh, ZNF28 / RFU, RNGTT / Fold change vs veh, RNGTT / RFU, OGT / Fold change vs veh, OGT / RFU, BRD1 / Fold change vs veh, BRD1 / RFU, MARS / Fold change vs veh, MARS / RFU, ZNF655 / Fold change vs veh, ZNF655 / RFU, FAHD1 / Fold change vs veh, FAHD1 / RFU, BDP1 / Fold change vs veh, BDP1 / RFU, LRRCC1 / Fold change vs veh, LRRCC1 / RFU, ARID1A / Fold change vs veh, ARID1A / RFU, ZNF146 / Fold change vs veh, ZNF146 / RFU, ZNF330 / Fold change vs veh, ZNF330 / RFU, GPN3 / Fold change vs veh, GPN3 / RFU, C9orf123 / Fold change vs veh, C9orf123 / RFU, N4BP2L2 / Fold change vs veh, N4BP2L2 / RFU, ARFIP1 / Fold change vs veh, ARFIP1 / RFU, FAM179B / Fold change vs veh, FAM179B / RFU, BCL10 / Fold change vs veh, BCL10 / RFU, UHRF1BP1L / Fold change vs veh, UHRF1BP1L / RFU, BET1 / Fold change vs veh, BET1 / RFU, CNOT2 / Fold change vs veh, CNOT2 / RFU, ZNF268 / Fold change vs veh, ZNF268 / Fold change vs veh, ZNF507 / RFU, DGCR2 / Fold change vs veh, DGCR2 / RFU, WDSUB1 / Fold change vs veh, WDSUB1 / Fold change vs veh, HSP90B1 /// MIR3652 / RFU, ADSS / Fold change vs veh, ADSS / RFU, GK / Fold change vs veh, GK / RFU, ZNF148 / Fold change vs veh, ZNF148 / RFU, TAF9 / Fold change vs veh, TAF9 / RFU, SLC1A5 / Fold change vs veh, SLC1A5 / RFU, SLMO2 / Fold change vs veh, SLMO2 / RFU, ABCC4 / Fold change vs veh, ABCC4 / RFU, LOC101060439 /// RAP1B / Fold change vs veh, LOC101060439 /// RAP1B / RFU, RFX7 / Fold change vs veh, RFX7 / RFU, GTPBP10 / Fold change vs veh, GTPBP10 / RFU, CNEP1R1 / Fold change vs veh, CNEP1R1 / RFU, BIVM-ERCC5 /// ERCC5 / Fold change vs veh, BIVM-ERCC5 /// ERCC5 / RFU, ILF3 / Fold change vs veh, ILF3 / RFU 11762660_at / Fold change /veh 11762660_at / RFU VCAN (11757783_s_at) / Fold change /veh VCAN (11757783_s_at) / RFU DDX43 (11728927_at) / Fold change /veh DDX43 (11728927_at) / RFU KRT8 (11758188_x_at) / Fold change /veh KRT8 (11758188_x_at) / RFU NKD1 (11759106_at) / Fold change /veh NKD1 (11759106_at) / RFU SRD5A1 (11742802_a_at) / Fold change /veh SRD5A1 (11742802_a_at) / RFU TPSAB1 /// TPSB2 (11721975_s_at) / Fold change /veh TPSAB1 /// TPSB2 (11721975_s_at) / RFU GSTM3 (11746129_a_at) / Fold change /veh GSTM3 (11746129_a_at) / RFU IL23R (11737362_x_at) / Fold change /veh IL23R (11737362_x_at) / RFU TMEM51 (11727254_a_at) / Fold change /veh TMEM51 (11727254_a_at) / RFU PIWIL2 (11732686_x_at) / Fold change /veh PIWIL2 (11732686_x_at) / RFU ORM1 (11744905_x_at) / Fold change /veh ORM1 (11744905_x_at) / RFU CCDC152 (11743942_at) / Fold change /veh CCDC152 (11743942_at) / RFU ECM1 (11717891_a_at) / Fold change /veh ECM1 (11717891_a_at) / RFU IL23R (11748794_a_at) / Fold change /veh IL23R (11748794_a_at) / RFU TNFAIP8L3 (11732012_x_at) / Fold change /veh TNFAIP8L3 (11732012_x_at) / RFU MBOAT4 (11741988_at) / Fold change /veh MBOAT4 (11741988_at) / RFU 11764193_at / Fold change /veh 11764193_at / RFU TMEM53 (11763286_at) / Fold change /veh TMEM53 (11763286_at) / RFU MAGEB2 (11727129_at) / Fold change /veh MAGEB2 (11727129_at) / RFU TMEM200A (11744735_a_at) / Fold change /veh TMEM200A (11744735_a_at) / RFU CCDC152 (11751479_a_at) / Fold change /veh CCDC152 (11751479_a_at) / RFU FAM211A (11726209_a_at) / Fold change /veh FAM211A (11726209_a_at) / RFU RGS16 (11746705_a_at) / Fold change /veh RGS16 (11746705_a_at) / RFU VCAN (11755009_s_at) / Fold change /veh VCAN (11755009_s_at) / RFU RHOB (11743442_s_at) / Fold change /veh RHOB (11743442_s_at) / RFU RGS16 (11720943_a_at) / Fold change /veh RGS16 (11720943_a_at) / RFU RGS16 (11720944_at) / Fold change /veh RGS16 (11720944_at) / RFU, VPS4B / Fold change vs veh, VPS4B / RFU, CREB1 / Fold change vs veh, CREB1 / RFU, DNAJC13 / Fold change vs veh, DNAJC13 / RFU, GNAQ / Fold change vs veh, GNAQ / RFU, CDK5R1 / Fold change vs veh, CDK5R1 / RFU, ZRANB3 / Fold change vs veh, ZRANB3 / RFU, CUL4A / Fold change vs veh, CUL4A / RFU, CCNY / Fold change vs veh, CCNY / RFU, UFL1 / Fold change vs veh, UFL1 / RFU, COG3 / Fold change vs veh, COG3 / RFU, DIAPH2 / Fold change vs veh, DIAPH2 / RFU, SKA2 / Fold change vs veh, SKA2 / RFU, AFF3 / Fold change vs veh, AFF3 / RFU, LMF1 / Fold change vs veh, LMF1 / RFU, IPO11 / Fold change vs veh, IPO11 / RFU, DFFB / Fold change vs veh, DFFB / RFU, FOXP1 / Fold change vs veh, FOXP1 / RFU, CARD8 / Fold change vs veh, CARD8 / RFU, STRN3 / Fold change vs veh, STRN3 / RFU, ADK / Fold change vs veh, ADK / RFU, RASSF2 / Fold change vs veh, RASSF2 / RFU, WIPF1 / Fold change vs veh, WIPF1 / RFU, LARP1B / Fold change vs veh, LARP1B / RFU, RASA1 / Fold change vs veh, RASA1 / RFU, RB1 / Fold change vs veh, RB1 / RFU, PPFIA1 / Fold change vs veh, PPFIA1 / RFU, MAT2A / Fold change vs veh, MAT2A / RFU, CCT5 / Fold change vs veh, CCT5 / RFU, WDR92 / Fold change vs veh, WDR92 / RFU, CUX1 / Fold change vs veh, CUX1 / RFU, TTC7A / Fold change vs veh, TTC7A / RFU, TMEM135 / Fold change vs veh, TMEM135 / RFU, DEPTOR / Fold change vs veh, DEPTOR / RFU, CPM / Fold change vs veh, CPM / RFU, DNAJB6 / Fold change vs veh, DNAJB6 / RFU, CACNA2D3 / Fold change vs veh, CACNA2D3 / RFU, DTX4 / Fold change vs veh, DTX4 / RFU, TFCP2 / Fold change vs veh, TFCP2 / RFU, GMCL1 /// GMCL1P1 / Fold change vs veh, GMCL1 /// GMCL1P1 / RFU, AEBP2 / Fold change vs veh, AEBP2 / RFU, SNHG1 /// SNORD22 /// SNORD25 /// SNORD26 /// SNORD27 /// SNORD28 /// SNORD29 /// SNORD31 / Fold change vs veh, SNHG1 /// SNORD22 /// SNORD25 /// SNORD26 /// SNORD27 /// SNORD28 /// SNORD29 /// SNORD31 / Fold change (Aza/veh), C12orf56 (ProbeSet 11735607_a_at) / Fold change (ACY-1035/veh), C12orf56 (ProbeSet 11735607_a_at) / Fold change (Aza/veh), FGFR1OP (ProbeSet 11751329_s_at) / Fold change (ACY-1035/veh), FGFR1OP (ProbeSet 11751329_s_at) / Fold change (Aza/veh), VPS36 (ProbeSet 11739960_a_at) / Fold change (ACY-1035/veh), VPS36 (ProbeSet 11739960_a_at) / RFU SYPL1 (11715823_x_at) / Fold change /veh SYPL1 (11715823_x_at) / RFU IGFBP7 (11715501_s_at) / Fold change /veh IGFBP7 (11715501_s_at) / RFU REEP3 (11722064_at) / Fold change /veh REEP3 (11722064_at) / RFU IGLL1 (11728026_x_at) / Fold change /veh IGLL1 (11728026_x_at): dose or concentration left out as unconfirmed
Details: ProbeSet 11724877_a_at; LIST D

SMILES: Nc1ccc(-c2cccs2)cc1NC(=O)c1ccc2c(c1)cc(C1CC1)n2CCN1CCOCC1 [ACY-1035]
- RFU, AEBP2: 30.16 RFU
